Usually IC20 stands for the concentration at which the effect reaches the 20% level.

From patent US9637795B2, “Methods and compositions for predicting response to eribulin” (Eisai R&D Management Co., Ltd., priority 2011, dated 2017) come the findings set out here.

One assay deals with MDA-MB-231. The experiment in a line: IC20 of E7389 for the cell line tested (MDA-MB-231). The note with it: Homo sapiens. The assay is classed as cell-based. The source says:
Transfection conditions for human breast cancer cell lines MDA-MB-231 (ATCC Catalog No. HTB26™) and BT-549 (ATCC Catalog No. HTB122™) were optimized using transfection reagent DharmaFect 1 from Dharmacon. The MDA-MB-231 and BT-549 cell lines have been reported to be Estrogen Receptor (ER) negative, Progesterone Receptor (PR) negative and HER-2 negative (triple negative). As a non-targeting negative control we used Silencer Negative Control #1 siRNA from Applied Biosystems. The siGENOME TOX (siTOX) Transfection Control (Dharmacon), an RNA duplex designed to induce cell death, was used as a positive control for cell proliferation assays. A reverse transfection procedure in which siRNA was first mixed with transfection reagent and then cells were added to the well, was used in all experiments. Cell viability was compared in cells treated with medium, negative control siRNA and siTOX reagent combined with different amount of DharmaFect 1. […]
The whole human genome siRNA library was purchased from Dharmacon. […] Cell viability was determined at 96 hours after transfection by CellTiter-Glo luminescent assay from Promega. […] Plates were mixed for 2 minutes on a horizontal shaker, incubated for 10 minutes and read on an EnVision® multilabel plate reader from PerkinElmer.

The subject of a further assay is BT-549 cells. As to the kind of experiment: IC20 of E7389 for BT-549 cells. Format: cell-based. The note with it: Homo sapiens.

Structures can show the parent of a compound that is named as a salt.

In the case of `C=C1C[C@@H]2CC[C@@]34C[C@H]5O[C@H]6C(O3)[C@H]3OC(CC[C@@H]3O[C@H]6[C@H]5O4)CC(=O)C[C@@H]3[C@@H](OC)[C@@H](C[C@H](O)CN)O[C@H]3CC3O[C@@H](CCC1O2)C[C@@H](C)C3=C` [E7389, 11,15:18,21:24,28-Triepoxy-7,9-ethano-12,15-methano-9H,15H-furo[3,2-i]furo[2′,3′:5,6]pyrano[4,3-b][1,4]dioxacyclopentacosin-5(4H)-one, 2-[(2S)-3-amino-2-hydroxypropyl]hexacosahydro-3-methoxy-26-methyl-20,27-bis(methylene)-, (2R,3R,3aS,7R,8aS,9S,10aR,11S,12R,13aR,13bS,15S,18S,21S,24S,26R,28R,29aS)-methanesulfonate (salt)], the IC20 in the assay with MDA-MB-231 turned out to be 0.75 nM; with BT-549 cells it was 0.25 nM.
